How the values were obtained:
[1] = system: Rac, Cdc42, RhoA, PAK, and p-PAK; assay: Western blot of tumor lysates from treated mice; format: in vivo, SCID mice; details: GFP-HER2-BM tumors, 5 mg/kg BW, 53 days
From the text: Treatments continued until sacrifice at day 53.
(§1) Total cell lysates or pulldowns were Western blotted using routine procedures. The primary antibodies used were anti-Rac (Cell Signaling Technology), anti-Cdc42 (Abcam), anti-PAK1+PAK2+PAK3 (Cell Signaling Technology), anti-pPAK1 (T423)/PAK2 (T402; Abcam), anti-PAK1 + PAK2 + PAK3 (phospho T423; Abcam), Rac1B, and β-actin (Millipore-Sigma).

CYP2C19 = biological target: T1, CYP2C19 (Homo sapiens, UniProt P33261); assay: CyP450 enzyme assay (P450-Glo); format: in vitro ADME
T1 construct: purchased Promega
T1 sequence (P33261 whole entry): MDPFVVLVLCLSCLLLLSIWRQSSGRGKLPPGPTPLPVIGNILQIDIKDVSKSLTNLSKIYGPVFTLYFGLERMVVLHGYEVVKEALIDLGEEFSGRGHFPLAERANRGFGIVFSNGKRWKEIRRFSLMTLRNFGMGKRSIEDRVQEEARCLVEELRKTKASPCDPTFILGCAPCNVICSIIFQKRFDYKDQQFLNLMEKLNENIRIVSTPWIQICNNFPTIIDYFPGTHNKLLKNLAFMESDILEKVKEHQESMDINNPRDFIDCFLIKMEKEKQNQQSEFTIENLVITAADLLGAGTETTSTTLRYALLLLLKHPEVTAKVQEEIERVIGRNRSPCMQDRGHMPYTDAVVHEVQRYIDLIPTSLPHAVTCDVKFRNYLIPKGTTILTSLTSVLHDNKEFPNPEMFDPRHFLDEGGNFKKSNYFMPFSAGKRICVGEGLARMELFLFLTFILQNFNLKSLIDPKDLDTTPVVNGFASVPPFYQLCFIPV
Method: (§2) The assay was carried out using P450-Glo Screening System (Promega). The system contained recombinant human CYP enzyme and P450 reductase (and cytochrome b5 for CYP2C9, 2C19, and 3A4), luminogenic substrates appropriate for each CYP enzyme, a NADPH regeneration system (containing NADP+), and luciferin detection reagent. […] These compounds and organic solvents acetonitrile, and DMSO were purchased from Sigma-Aldrich.
(§3) First, 12.5 μL of the 4X stock solution of test compounds or positive controls (appropriate for each enzyme) were added to the “treated” wells. For the “untreated” (the values from these wells represent total CYP activity) and “minus-P450 control” wells (the values from these wells represent the CYP-independent background luminescence of the assay), 12.5 μL of vehicle was added. Then, 12.5 μL of the 4X control reaction mixture (containing membrane preparations devoid of CYP enzymes, the appropriate luminogenic substrate, and potassium phosphate buffer) were added to the minus-P450 control wells, and 12.5 μL of the 4X reaction mixture (containing human CYP membrane preparations, the appropriate luminogenic substrate, and potassium phosphate buffer) were added to all other wells. The plates were preincubated at room temperature for 10 minutes with the reaction mixture (membrane with enzyme, substrate, and 1 mol/L potassium phosphate buffer), and then 2X NADPH regeneration system was added to initiate the reaction. After incubation at room temperature for 30 minutes, 50 μL of the Luciferin Detection Reagent was added to stop the reaction and generate the luminescent signal. Before reading, the plate was incubated at room temperature for 20 minutes to stabilize the luminescent signal. The luminescence was measured using an Infinite F200 plate reader (Tecan). […] The percentage of CYP enzyme activity versus log concentration of test compounds were plotted to calculate the IC50 values.

CYP3A4 = biological target: T2, CYP3A4 (Homo sapiens, UniProt P08684); assay: CyP450 enzyme assay (P450-Glo); format: in vitro ADME; details: for IC50: recombinant human CYP enzyme, 0.001–100 μmol/L
T2 construct: purchased Promega
T2 sequence (P08684 whole entry): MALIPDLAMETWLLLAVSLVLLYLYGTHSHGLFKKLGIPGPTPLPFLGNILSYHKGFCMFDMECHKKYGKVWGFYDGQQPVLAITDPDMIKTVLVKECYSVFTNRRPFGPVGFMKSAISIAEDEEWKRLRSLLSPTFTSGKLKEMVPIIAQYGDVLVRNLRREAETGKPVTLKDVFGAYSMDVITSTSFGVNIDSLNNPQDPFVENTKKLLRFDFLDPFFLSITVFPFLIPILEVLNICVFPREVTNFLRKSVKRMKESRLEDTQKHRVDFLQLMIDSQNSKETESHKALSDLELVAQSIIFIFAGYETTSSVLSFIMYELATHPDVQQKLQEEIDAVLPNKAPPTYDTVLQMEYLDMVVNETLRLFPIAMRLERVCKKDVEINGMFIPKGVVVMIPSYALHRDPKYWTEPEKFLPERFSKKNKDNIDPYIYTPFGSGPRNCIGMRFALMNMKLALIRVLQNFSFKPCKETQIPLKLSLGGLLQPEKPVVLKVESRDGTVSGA
Method: as §2, §3

CYP2C9 = biological target: T3, CYP2C9 (Homo sapiens, UniProt P11712); assay: CyP450 enzyme assay (P450-Glo); format: in vitro ADME; details: recombinant human CYP enzyme, 0.001–100 μmol/L
T3 construct: purchased Promega
T3 sequence (P11712 whole entry): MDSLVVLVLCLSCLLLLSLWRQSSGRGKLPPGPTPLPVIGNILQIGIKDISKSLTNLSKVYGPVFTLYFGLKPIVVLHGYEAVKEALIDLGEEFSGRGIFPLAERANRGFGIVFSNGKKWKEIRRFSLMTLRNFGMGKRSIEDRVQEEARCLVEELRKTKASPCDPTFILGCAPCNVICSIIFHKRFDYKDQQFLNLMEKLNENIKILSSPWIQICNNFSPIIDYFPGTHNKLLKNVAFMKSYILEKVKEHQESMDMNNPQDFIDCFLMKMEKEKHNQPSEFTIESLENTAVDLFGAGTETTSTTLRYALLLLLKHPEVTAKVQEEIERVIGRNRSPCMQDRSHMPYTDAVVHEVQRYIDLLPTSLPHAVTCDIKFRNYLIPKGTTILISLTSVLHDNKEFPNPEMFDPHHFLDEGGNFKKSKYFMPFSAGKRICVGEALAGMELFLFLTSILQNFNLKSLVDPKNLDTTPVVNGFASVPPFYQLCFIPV
Method: as §2, §3

MDA-MB-231 cells = assay: Phalloidin staining of F-actin, cell phenotype; format: cell-based, human; details: 250 nmol/L, 12 hours
From the text: Cells were fixed, permeabilized, and stained with rhodamine phalloidin to visualize F-actin as described previously ([23]). Fluorescence micrographs were acquired at 40× in a Keyence fluorescence microscope.

Rac1 = Rac1 (Homo sapiens, UniProt P63000); assay: Nucleotide association assay, catalyzed by Vav2; format: biochemical; parameters: purchased Cytoskeleton, Inc; details: 2 or 10 μmol/L, N-MAR-GTP
Method: (§4) The nucleotide loading on purified Rho GTPases was monitored using a fluorophore-based Rho GEF Exchange Assay Kit as per manufacturer's instructions (Cytoskeleton, Inc.). Drugs were diluted in exchange buffer and incubated with Rac1, Cdc42, or RhoA. […] After the initial five readings (T0), GEFs (Dbs or Vav2) or Ethylenediaminetetraacetic acid (EDTA) was added to stimulate exchange and readings were obtained every 30 seconds for at least 60 cycles.

[2] = biological target: T4, Cdc42(G15A) interaction with Ect2 (Homo sapiens, UniProt P60953, G15A); assay: Cdc42 (G15A) pulldown assay, Ect2; format: binding; details: 250 nmol/L, 1 hour preincubation, MDA-MB-231 cell lysates
T4 construct: purchased Cell Biolabs; host or cells: GEF from MDA-MB-231 lysate
T4 sequence (P60953 whole entry G15A): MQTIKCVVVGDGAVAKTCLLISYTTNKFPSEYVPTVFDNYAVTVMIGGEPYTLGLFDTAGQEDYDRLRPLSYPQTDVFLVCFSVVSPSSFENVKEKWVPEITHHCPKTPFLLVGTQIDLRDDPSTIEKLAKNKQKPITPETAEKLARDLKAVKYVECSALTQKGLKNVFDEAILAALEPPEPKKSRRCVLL
Method: MDA-MB-231 cells were lysed in 1% Triton X-100, 20 mmol/L HEPES, pH 7.4, 150 mmol/L NaCl, 5 mmol/L MgCl2, and protease inhibitors, and processed as described previously ([20]). Equal amounts of protein from cleared lysates were incubated for 1 hour at 4°C with glutathione-agarose beads conjugated to GST-Rac1 and GST-Cdc42(G15A) nucleotide-free mutant (Cell Biolabs) that were preincubated (for 1 hour) with vehicle or Rac/Cdc42 inhibitors, as indicated. The beads were washed, and pulldowns were immunoblotted for Vav2 or Ect2.

RhoA = RhoA (Homo sapiens, UniProt P61586); assay: Nucleotide association assay, catalyzed by Dbs; details: 2 μmol/L, N-MAR-GTP
Sequence of RhoA (P61586 whole entry): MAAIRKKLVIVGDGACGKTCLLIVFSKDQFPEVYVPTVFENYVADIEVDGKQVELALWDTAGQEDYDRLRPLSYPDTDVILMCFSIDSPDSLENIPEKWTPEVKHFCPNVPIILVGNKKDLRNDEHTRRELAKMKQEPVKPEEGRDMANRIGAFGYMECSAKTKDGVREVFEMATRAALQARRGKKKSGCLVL
Method: as §4
After initial five readings, the exchange factor Dbs was added to catalyze the loading of N-
B. 2µM Rac1 was incubated with 0 or 2 µM

[3] = system: GFP-HER2-BM mammary fatpad tumors; assay: Orthotopic spontaneous metastasis mouse model; format: in vivo; details: for weight and liver toxicity (aspartate transaminase and alanine transaminase from plasma): 5× a week at 5 mg/kg for 53 days
Method: All animal studies were conducted under approved protocol A8180118 Institutional Animal Care and Use Committee, in accordance with the NIH Guideline for the Care and Use of Laboratory Animals. Female SCID mice, 3–4 weeks old (Charles River Laboratories, Inc.), were maintained under pathogen-free conditions in High Efficiency Particulate Air (HEPA)-filtered cages.
GFP-HER2-BM (∼7 × 10^5) cells in Matrigel (BD Biosciences) were injected at the fourth right mammary fat pad under isoflurane inhalation (1%–3% in oxygen using an inhalation chamber at 2 L/minute) to produce orthotopic primary tumors. After tumor establishment (1-week after inoculation), animals were randomly divided into treatment groups (n = 5).
[…]. Treatments continued until sacrifice at day 53.
Mammary tumor growth was quantified by integrated density of GFP fluorescence. After tumor establishment, mice were imaged before starting treatment, and once a week thereafter for 53 days, using the iBoxScientia (Analytik-Jena GmbH). Tumor fluorescence intensities were analyzed using ImageJ software (NIH, Bethesda, MD). Relative tumor growth was calculated as the integrated density of fluorescence of each tumor on each day of imaging relative to the integrated density of fluorescence of the same tumor on day 1 of treatment. After sacrifice at day 60, lungs, kidneys, livers, and spleens were excised and immediately stored in liquid N2. To quntify metastasis, stored organs were thawed and analyzed, as whole organs on both sides, using an Olympus MV10 fluorescence macro zoom system microscope and images acquired with an Olympus DP71 digital camera. The fluorescent lesions (green component of RGB images) were quantified for integrated density of fluorescent pixels using Image J software.

GFP-HER2-BM cells = assay: Transwell directed migration of attached and detached cells; format: cell-based, human; details: treated 24 hr
Method: migration. Cells treated for 24hr and the attached and detached cell populations recovered and equal cell numbers were seeded on Transwells with […] and incubated for 7 hr.
Cells that migrated to the underside of the membrane were stained with propidium iodide and imaged at 20X. Representatives images are a result from two technical replicates and three […]
(1 picture or pasted object on this page, not shown here)

PAK1/2/3 = assay: Western blot of PAK phosphorylation in MDA-MB-231 cells; format: cell-based, human; details: MDA-MB-231, 250 nmol/L
From the text: as §1

[4] = 5 mg/kg BW, intraperitoneal, 53 days

Structure (SMILES) | Cdc42 and RhoA levels [1] | reduction of Thr 423 phosphorylation in PAKs 1, 2, 3 compared with vehicle [1] | reduction of p-Serine 141,144,154 levels in PAK1, 2, and 3 [1] | total Rac, and PAK1/2/3 levels [1] | IC50 (CYP3A4) [µM] | IC50 (CYP2C9) [µM] | cell phenotype, actin cytoskeleton (MDA-MB-231 cells) | Cdc42(G15A) interaction with Ect2 [2] | inhibition in tumor growth compared with vehicle [3, 4] | weight and liver toxicity (aspartate transaminase and alanine transaminase from plasma) [3] | reduction of p-PAK1/3 levels (Thr423) (PAK1/2/3) | reduction of p-PAK2 S144 (61 kD band) (PAK1/2/3) | reduction of p-PAK2 T423 (61 kD band) (PAK1/2/3) | also measured
CCn1c2ccccc2c2cc(-n3nncc3-c3cccc(OC)c3)ccc21 [MBQ-168] | remain unaffected | approximately 50% | approximately 75% | Decreases were observed | 3.18 | 0.67 | acquired a round shape with punctate actin staining | no effect | approximately 90% | did not significantly change weight or liver toxicity | approximately 100% | approximately 50% | approximately 100% | CYP2C19 IC50, fold lower than the IC50 for the positive control (CYP2C19): approximately 6 fold; IC50 at 30 min (CYP2C19; human, recombinant human CYP enzyme, 0.001–100 μmol/L): 0.523 µM; potency at inhibiting CYP3A4, times less potent than MBQ-167 (CYP3A4): approximately 10 X; inhibition of GTP loading on Rac1 catalyzed by Vav2 (Rac1): ≥ 30%; Dbs-catalyzed exchange of RhoA (RhoA): did not affect; directed migration (GFP-HER2-BM cells): both cell types were inhibited; decrease of p-PAK ser 141, 154, PAK1/3 (68 kD band) (PAK1/2/3): approximately 95%
CCn1c2ccccc2c2cc(-n3nncc3-c3ccccc3)ccc21 [MBQ-167] | remain unaffected | approximately 50% | did not show changes | Decreases were observed | 0.28 | 0.89 | acquired a round shape with punctate actin staining | no effect | approximately 90% | did not significantly change weight or liver toxicity | approximately 75% | approximately 50% | approximately 60% | IC50 (CYP2C19; recombinant human CYP enzyme, 0.001–100 μmol/L): 0.455 µM; inhibition of lung, liver, and kidney metastases compared with vehicle [3, 4]: approximately 90%
